Consider two compounds from ChEMBL document CHEMBL4118125, “MK-8325: A silyl proline-containing NS5A inhibitor with pan-genotype activity for treatment of HCV” (Bioorg Med Chem Lett, 2018).

Active and inactive are the calls of the source. No cut-off for these calls is given here.

The nature of series [1]: Drug level in beagle dog at 2 mg/kg, po after 24 hrs by LC-MS/MS method. The following applies: in vivo, read-out: Drug uptake. It is filed as ADME, organism-based, Canis lupus familiaris.
A short description of series [2]: Clearance in Sprague-Dawley rat at 2.5 mg/kg, iv by LC-MS/MS method. The series is classed as ADME, organism-based. The following applies: in vivo.
Series [3] in a line: Oral bioavailability in Sprague-Dawley rat at 5 mg/kg by LC-MS/MS method. It is filed as ADME, organism-based. The settings on record: in vivo.
A short description of series [4]: Drug level in cynomolgus monkey at 2 mg/kg, po after 24 hrs by LC-MS/MS method. It is filed as ADME, organism-based, Macaca fascicularis. The following applies: in vivo, read-out: Drug uptake.
In series [5] the test system is Canis familiaris. Description: AUC in beagle dog at 2 mg/kg, po by LC-MS/MS method. It is filed as ADME, organism-based, Canis lupus familiaris. The following applies: in vivo.
For series [6], the target named is Cytochrome P450 3A4 (Homo sapiens, UniProt P08684). Put plainly: Inhibition of CYP3A4 (unknown origin). The series is classed as ADME.
Sequence of Cytochrome P450 3A4 (P08684 whole entry): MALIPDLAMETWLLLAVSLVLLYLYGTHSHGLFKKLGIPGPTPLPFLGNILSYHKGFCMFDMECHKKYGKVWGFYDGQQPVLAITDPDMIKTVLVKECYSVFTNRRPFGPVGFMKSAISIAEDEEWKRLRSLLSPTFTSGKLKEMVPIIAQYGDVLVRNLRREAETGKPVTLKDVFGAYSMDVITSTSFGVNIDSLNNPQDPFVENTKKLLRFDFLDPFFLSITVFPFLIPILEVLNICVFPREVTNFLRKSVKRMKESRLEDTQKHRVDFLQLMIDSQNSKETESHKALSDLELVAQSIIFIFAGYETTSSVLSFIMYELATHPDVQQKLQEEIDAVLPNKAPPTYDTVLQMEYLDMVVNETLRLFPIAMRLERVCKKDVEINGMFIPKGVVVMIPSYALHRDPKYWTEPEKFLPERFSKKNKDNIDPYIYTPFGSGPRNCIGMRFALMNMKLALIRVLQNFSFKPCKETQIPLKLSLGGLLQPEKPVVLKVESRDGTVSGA
In series [7] the target is T1, Nuclear receptor subfamily 1 group I member 2 (Homo sapiens, UniProt O75469).
T1 sequence (O75469 whole entry): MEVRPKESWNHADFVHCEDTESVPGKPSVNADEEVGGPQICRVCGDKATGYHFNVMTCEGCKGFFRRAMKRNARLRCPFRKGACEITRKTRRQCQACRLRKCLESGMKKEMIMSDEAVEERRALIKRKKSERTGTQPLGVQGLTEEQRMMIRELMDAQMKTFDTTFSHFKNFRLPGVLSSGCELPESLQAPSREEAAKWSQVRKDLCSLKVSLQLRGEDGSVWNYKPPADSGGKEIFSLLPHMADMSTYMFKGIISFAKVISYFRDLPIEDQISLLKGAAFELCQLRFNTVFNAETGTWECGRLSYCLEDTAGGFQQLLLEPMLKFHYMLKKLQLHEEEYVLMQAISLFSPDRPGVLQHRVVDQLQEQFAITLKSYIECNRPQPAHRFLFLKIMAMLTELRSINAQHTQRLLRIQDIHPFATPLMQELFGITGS
Description: Activation of PXR in human hepatocytes assessed as induction of […] mRNA expression. It is filed as ADME, cell-based.

Series [8] is described as follows: Effective half life in Sprague-Dawley rat at 2.5 mg/kg, iv by LC-MS/MS method. The series is classed as ADME, organism-based. The following applies: in vivo, read-out: t1/2eff (converted).
Series [9] in a line: Oral bioavailability in cynomolgus monkey at 2 mg/kg by LC-MS/MS method. The following applies: in vivo. The series is classed as ADME, organism-based, Macaca fascicularis.
Series [10] concerns the target Cytochrome P450 2D6 (Homo sapiens, UniProt P10635). Description: Inhibition of CYP2D6 (unknown origin). It is filed as ADME.
The nature of series [11]: Oral bioavailability in beagle dog at 2 mg/kg by LC-MS/MS method. It is filed as ADME, organism-based, Canis lupus familiaris. The following applies: in vivo.
Series [12] can be described thus: Effective half life in cynomolgus monkey at 1 mg/kg, iv by LC-MS/MS method. The series is classed as ADME, organism-based, Macaca fascicularis. The settings on record: in vivo, read-out: t1/2eff (converted).
The nature of series [13]: Clearance in cynomolgus monkey at 1 mg/kg, iv by LC-MS/MS method. It is filed as ADME, organism-based, Macaca fascicularis. The settings on record: in vivo.
A short description of series [14]: Drug level in Sprague-Dawley rat at 5 mg/kg, po after 24 hrs by LC-MS/MS method. It is filed as ADME, organism-based. The settings on record: in vivo, read-out: Drug uptake.
Series [15] can be described thus: Effective half life in beagle dog at 1 mg/kg, iv by LC-MS/MS method. The series is classed as ADME, organism-based, Canis lupus familiaris. The following applies: in vivo, read-out: t1/2eff (converted).
Series [16] addresses T2, PXR (Nuclear receptor subfamily 1 group I member 2) (Homo sapiens, UniProt O75469).
T2 sequence (O75469 whole entry): T1 sequence (O75469 whole entry)
Put plainly: Activation of PXR (unknown origin) relative to rifampicin. The following applies: read-out: FC. It is filed as ADME.

Series [17] concerns the target Cytochrome P450 2C9 (Homo sapiens, UniProt P11712). Put plainly: Inhibition of CYP2C9 (unknown origin). The series is classed as ADME.
Series [18] concerns Cynomolgus monkey. Description: AUC in cynomolgus monkey at 2 mg/kg, po by LC-MS/MS method. It is filed as ADME, organism-based, Macaca fascicularis. The settings on record: in vivo.
Series [19] is described as follows: Clearance in beagle dog at 1 mg/kg, iv by LC-MS/MS method. It is filed as ADME, organism-based, Canis lupus familiaris. The settings on record: in vivo.
The species named for series [20] is Homo sapiens. Put plainly: Inhibition of sodium channel (unknown origin) at 30 uM.

Sequence of Cytochrome P450 2D6 (P10635 whole entry): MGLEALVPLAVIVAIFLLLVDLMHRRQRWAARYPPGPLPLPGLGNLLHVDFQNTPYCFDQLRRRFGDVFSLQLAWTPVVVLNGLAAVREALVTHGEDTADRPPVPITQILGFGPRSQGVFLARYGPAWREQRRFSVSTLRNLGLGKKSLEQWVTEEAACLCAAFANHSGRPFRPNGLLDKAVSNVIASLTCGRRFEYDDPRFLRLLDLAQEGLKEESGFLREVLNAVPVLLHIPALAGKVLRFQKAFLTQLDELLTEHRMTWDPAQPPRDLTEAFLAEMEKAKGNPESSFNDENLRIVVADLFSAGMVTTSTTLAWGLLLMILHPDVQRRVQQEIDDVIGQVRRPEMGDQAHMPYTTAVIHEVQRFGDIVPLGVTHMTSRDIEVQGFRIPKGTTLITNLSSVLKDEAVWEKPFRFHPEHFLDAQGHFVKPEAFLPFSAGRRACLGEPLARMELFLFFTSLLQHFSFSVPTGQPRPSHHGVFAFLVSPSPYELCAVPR
Sequence of Cytochrome P450 2C9 (P11712 whole entry): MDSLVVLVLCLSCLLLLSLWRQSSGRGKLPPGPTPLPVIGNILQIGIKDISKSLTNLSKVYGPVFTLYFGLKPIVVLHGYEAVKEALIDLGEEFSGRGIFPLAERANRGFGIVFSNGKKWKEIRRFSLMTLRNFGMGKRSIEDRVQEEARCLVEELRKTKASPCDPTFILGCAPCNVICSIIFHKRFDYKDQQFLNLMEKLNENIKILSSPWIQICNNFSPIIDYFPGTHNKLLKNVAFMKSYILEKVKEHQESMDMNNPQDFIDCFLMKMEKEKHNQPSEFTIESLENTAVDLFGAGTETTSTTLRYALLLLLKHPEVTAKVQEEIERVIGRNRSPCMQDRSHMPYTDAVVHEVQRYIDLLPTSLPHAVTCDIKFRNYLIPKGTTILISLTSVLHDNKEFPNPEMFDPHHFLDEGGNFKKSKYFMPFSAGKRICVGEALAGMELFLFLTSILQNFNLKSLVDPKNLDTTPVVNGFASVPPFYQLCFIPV

Consider `COC(=O)N[C@H](C(=O)N1C[Si](C)(C)C[C@H]1c1ncc(-c2ccc(-c3ccc4c(ccc5nc([C@@H]6CC(F)(F)CN6C(=O)[C@@H](NC(=O)OC)C(C)C)[nH]c54)c3)cc2)[nH]1)C(C)C`, for which the concentration at 24 h in [1] was found to be 0.4 nM; in [4], 273 nM; in series [14] it was 94 nM. The clearance in [2] worked out at 7 mL/min/kg; in series [13], 0.7 mL/min/kg; in series [19], 0.7 mL/min/kg. Also, the bioavailability in [3] came out at 64%; in series [9], 45%; in series [11], 47%. In addition, the AUC in series [5] is recorded as 32 uM.hr/ml; in series [18] it was 26 uM.hr/ml. In addition, the INH in series [6], in series [10] and in series [17] was greater than 20 µM each time. Besides, in series [7], the Activity was determined as 0.3 µM. Moreover, the half-life in series [8] is 10 h; in series [12] it was 15 h; in series [15], 30 h. In series [16], the fold induction stood at 0.31.

Regarding `COC(=O)N[C@H](C(=O)N1CC(F)(F)C[C@H]1c1ncc(-c2ccc(-c3ccc4c(ccc5nc([C@@H]6C[Si](C)(C)CN6C(=O)[C@@H](NC(=O)OC)C(C)C)[nH]c54)c3)cc2)[nH]1)C(C)C`, the inhibition entry in series [20] was “inactive”.

What is called clearance is the rate of elimination divided by the concentration. What is called bioavailability is the share of a dose that reaches the circulation, judged against a reference dose that is usually intravenous.
